According to patent publication US5362873A, “Tetrahydropyridine derivatives” (Shionogi & Co., Ltd., priority 1990, dated 1994):

Experiments:
PCP receptor = PCP receptor binding ([3H]TCP); settings: [3H]TCP 5 nM, rat cortex tissue, pH 7.8, 25° C., 30 minutes
Protocol: (§1) After the decapitation of rats the objective tissues were rapidly removed and each was weighed. Each tissue was homogenized with twenty-fold amount of ice-cold 50 mM […] buffer (pH7.8) homogenized, and centrifuged at 40,000×g for 10 minutes. The supernatant was removed and pellets were then resuspended in the buffer and recentrifuged. The procedure is repeated 3 times. Then these obtained samples were freeze-dried in liquid nitrogen and preserved at -80° C. On the test day the sample was thawed at room temperature and centrifuged at 40,000×g for 10 minutes, the pellets were then suspended in an incubation buffer and used as the receptor preparation. The preparation was added to the mixture containing the labelled ligand and the test drug, and filtered through Whatman GF/C filters and washed to terminate the reaction. Radioactivity on the filters was determined by a liquid scintillation counter and Ki value was calculated.
PCP receptor binding was initiated by the addition of the receptor preparation (cortex tissue, 0.2 mg protein/ml) to a mixture containing 5 nM of [^3 H]TCP and the test compound dissolved in 5 mM Tris-HCl buffer (pH 7.8). Incubation was carried out at 25° C. for 30 minutes. Specific PCP receptor binding was defined as the difference in amount of [^3 H]TCP bound to the tissue in the presence or the absence of 10 μM PCP.

DA2 receptor = biological target: T1, DA2 receptor (Rattus norvegicus, UniProt P61169); experiment: DA2 receptor binding ([3H]spiroperidol); settings: [3H]spiroperidol 0.2 nM, rat striatal tissue, pH 7.4, 37° C., 10 minutes
T1 construct: receptor preparation (striatal tissue, 0.3 mg protein/ml); from tissue; host or cells: rat striatal membranes
T1 sequence (P61169 whole entry): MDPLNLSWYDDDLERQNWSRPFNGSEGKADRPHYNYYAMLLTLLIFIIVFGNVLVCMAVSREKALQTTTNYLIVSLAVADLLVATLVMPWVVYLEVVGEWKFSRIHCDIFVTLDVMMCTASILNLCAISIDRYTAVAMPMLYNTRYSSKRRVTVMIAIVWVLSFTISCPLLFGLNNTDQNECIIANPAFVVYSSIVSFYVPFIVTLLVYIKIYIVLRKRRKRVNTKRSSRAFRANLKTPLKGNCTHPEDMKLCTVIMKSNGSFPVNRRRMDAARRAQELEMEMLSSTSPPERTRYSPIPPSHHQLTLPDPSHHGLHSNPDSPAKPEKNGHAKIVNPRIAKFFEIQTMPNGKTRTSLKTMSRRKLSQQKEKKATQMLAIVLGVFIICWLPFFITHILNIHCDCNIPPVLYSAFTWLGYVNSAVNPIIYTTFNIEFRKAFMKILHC
Protocol: as §1
DA2 receptor binding was initiated by the addition of the receptor preparation (striatal tissue, 0.3 mg protein/ml) to a mixture containing 0.2 nM of [^3 H]spiroperidol and the test compound dissolved in 50 mM Tris-HCl buffer containing 100 mM-NaCl and 5 mM-KCl (pH 7.4). Incubation was carried out at 37° C. for 10 minutes. Specific DA2 receptor binding was defined as the difference in amount of [^3 H]spiroperidol bound to the tissue in the presence or the absence of 10 μM haloperidol.

5HT2 receptor = biological target: T2, 5HT2 receptor (Rattus norvegicus, UniProt P14842); experiment: 5HT2 receptor binding ([3H]spiroperidol); settings: [3H]spiroperidol 1 nM, rat cortex tissue, pH 7.4, 37° C., 15 minutes
T2 construct: receptor preparation (cortex tissue, 0.5 mg protein/ml); from tissue; host or cells: rat cortex membranes
T2 sequence (P14842 whole entry): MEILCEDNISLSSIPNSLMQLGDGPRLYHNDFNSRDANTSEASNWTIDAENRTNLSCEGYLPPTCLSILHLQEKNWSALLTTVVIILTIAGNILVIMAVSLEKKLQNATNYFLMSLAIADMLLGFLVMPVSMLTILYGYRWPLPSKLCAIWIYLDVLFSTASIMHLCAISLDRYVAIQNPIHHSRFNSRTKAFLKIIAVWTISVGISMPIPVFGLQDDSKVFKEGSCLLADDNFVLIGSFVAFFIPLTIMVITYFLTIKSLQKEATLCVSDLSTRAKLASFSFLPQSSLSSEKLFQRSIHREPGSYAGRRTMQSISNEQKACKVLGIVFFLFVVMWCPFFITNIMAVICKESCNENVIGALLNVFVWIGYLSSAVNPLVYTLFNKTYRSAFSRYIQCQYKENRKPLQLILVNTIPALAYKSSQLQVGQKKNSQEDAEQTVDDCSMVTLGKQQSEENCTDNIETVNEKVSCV
Protocol: as §1
5HT2 receptor binding was initiated by the addition of the receptor preparation (cortex tissue, 0.5 mg protein/ml) to a mixture containing 1 nM of [^3 H]spiroperidol and the test compound dissolved in 50 mM Tris-HCl buffer (pH 7.4). Incubation was carried out at 37° C. for 15 minutes. Specific 5HT2 receptor binding was defined as the difference in amount of [^3 H]spiroperidol bound to the tissue in the presence or the absence of 1 mM serotonin.

σ receptor = σ receptor binding ([3H]3PPP); settings: [3H]3PPP 5 nM, rat cortex tissue, pH 7.8, 25° C., 90 minutes
Protocol: as §1
Sigma receptor binding was initiated by the addition of the receptor preparation (cortex tissue, 0.7 mg protein/ml) to a mixture containing 5 nM of [^3 H]3PPP [3-hydroxyphenyl-N-(1-propyl)piperidine] and the test compound dissolved in 50 mM Tris-HCl buffer (pH 7.8). Incubation was carried out at 25° C. for 90 minutes. Specific sigma receptor binding was defined as the difference in amount of [^3 H]3PPP bound to the tissue in the presence or the absence of 10 μM haloperidol.

dopamine receptors = settings: prior art, in words; cited from earlier work
σ receptors = settings: prior art, in words; cited from earlier work

For Cc1ccc(C2=CCN(CCCN(CC(C)C)CC(C)C)CC2)cc1 [I a-24], the Ki (PCP receptor) was 32 µM, the Ki (DA2 receptor) was 1100 nM and the Ki (5HT2 receptor) was 380 nM. It also gave a Ki (σ receptor) of 5.8 nM.
For OC(CCCN1CCN(c2ncc(F)cn2)CC1)c1ccc(F)cc1 (centres unmarked) [BMY 148021], the “affinity to dopamine receptors” value (dopamine receptors) is given as “low affinity” and the “affinity to σ receptors” value (σ receptors) is given as “high affinity”.
In the case of O=C(CCCN1CC=C(c2ccc(C(F)(F)F)cc2)CC1)N1CCCC1=O [I a-9], the Ki (PCP receptor) is reported as 33 µM, the Ki (DA2 receptor) is reported as 1600 nM and the Ki (5HT2 receptor) is reported as 1200 nM. The Ki (σ receptor) was 6.1 nM.
With O=C1CCCN1C(=O)NCCCN1CC=C(c2ccc(C(F)(F)F)cc2)CC1 [I a-2] the Ki (PCP receptor) was 31 µM, the Ki (DA2 receptor) was 4700 nM and the Ki (5HT2 receptor) was 550 nM. It also gave a Ki (σ receptor) of 4.1 nM.
For Cc1ccc(C2=CCN(CCCN3CCOCC3)CC2)cc1 [I a-101], the Ki (PCP receptor) was over 63 µM, the Ki (DA2 receptor) was 1800 nM and the Ki (5HT2 receptor) was 7700 nM. It also gave a Ki (σ receptor) of 0.31 nM.
In the case of FC(F)(F)c1ccc(C2=CCN(CCCOc3ccc(Cl)c(Cl)c3)CC2)cc1 [I a-111, 1-{3-(3,4-Dichlorophenoxy)propyl}-4-(4-trifluoromethylphenyl)-1,2,5,6-tetrahydropyridine], the Ki (PCP receptor) is reported as over 63 µM, the Ki (DA2 receptor) is reported as 630 nM and the Ki (5HT2 receptor) is reported as 390 nM. It also gave a Ki (σ receptor) of 2.9 nM.
Compound Cc1ccc(C2=CCN(CCCN3CCC(C)CC3)CC2)cc1 [I a-57] has a Ki (PCP receptor) of 44 µM, a Ki (DA2 receptor) of 2400 nM and a Ki (5HT2 receptor) of 140 nM. It also gave a Ki (σ receptor) of 6.3 nM.
CC(C)(C)c1ccc(C2=CCN(CCCNC(=O)N3CCCC3)CC2)cc1 [I a-11] showed a Ki (PCP receptor) of 23 µM, a Ki (DA2 receptor) of 4500 nM and a Ki (5HT2 receptor) of 4400 nM. The Ki (σ receptor) was 2.6 nM.
For CC1CCN(CCCN2CC=C(c3ccc(C(C)(C)C)cc3)CC2)CC1 [I a-56], the Ki (PCP receptor) was 44 µM, the Ki (DA2 receptor) was 4500 nM and the Ki (5HT2 receptor) was 8900 nM. The Ki (σ receptor) was 6.5 nM.
With CC(C)(C)c1ccc(C2=CCN(CCCN3CCOCC3)CC2)cc1 [I a-35, 4-[3-{4-(4-tert-butylphenyl)-1,2,5,6-tetrahydropyridin-1-yl}propyl]morpholine] the Ki (PCP receptor) was 18 µM, the Ki (DA2 receptor) was 4600 nM and the Ki (5HT2 receptor) was 3200 nM. It also gave a Ki (σ receptor) of 1.8 nM.
In the case of CNCCCN1CC=C(c2ccc(C(C)(C)C)cc2)CC1 [I a-30, 1-[(3-methylamino)propyl]-4-(4-tert-butylphenyl)-1,2,5,6-tetrahydropyridine], the Ki (PCP receptor) is reported as over 63 µM, the Ki (DA2 receptor) is reported as 2000 nM and the Ki (5HT2 receptor) is reported as 3700 nM. It also gave a Ki (σ receptor) of 1.3 nM.
Work on CCCc1ccc(C2=CCN(CCCNC(=O)N3CCCC3=O)CC2)cc1 [I a-3] yielded a Ki (PCP receptor) of 15 µM, a Ki (DA2 receptor) of 4000 nM and a Ki (5HT2 receptor) of 1700 nM. The Ki (σ receptor) was 9.5 nM.
With CC(C)(C)c1ccc(C2=CCN(CCCN3CCSCC3)CC2)cc1 [I a-94] the Ki (PCP receptor) was 27 µM, the Ki (DA2 receptor) was 1400 nM and the Ki (5HT2 receptor) was 1900 nM. It also gave a Ki (σ receptor) of 1.3 nM.
In the case of C[C@@H]1CN(CCCn2c3ccccc3c3ccccc32)C[C@H](C)N1 [rimcazole], the “affinity to dopamine receptors” value (dopamine receptors) is listed as “low affinity” and the “affinity to σ receptors” value (σ receptors) is listed as “high affinity”.
With CC(C)(C)c1ccc(C2=CCN(CCCC(=O)N3CCCC3=O)CC2)cc1 [I a-8] the Ki (PCP receptor) was over 62 µM, the Ki (DA2 receptor) was 1200 nM and the Ki (5HT2 receptor) was 2900 nM. The Ki (σ receptor) was 1.3 nM.
For Clc1ccc(C2=CCN(CCCN3CCOCC3)CC2)cc1 [I a-102], the Ki (PCP receptor) was over 71 µM, the Ki (DA2 receptor) was 3200 nM and the Ki (5HT2 receptor) was 5700 nM. For the same compound, the Ki (σ receptor) was 0.71 nM.
For O=C1CCCN1C(=O)NCCCCCN1CC=C(c2ccc(C(F)(F)F)cc2)CC1 [I a-13], the Ki (PCP receptor) was 26 µM, the Ki (DA2 receptor) was 320 nM and the Ki (5HT2 receptor) was 770 nM. The Ki (σ receptor) was 2.2 nM.
Work on CC(C)(C)c1ccc(C2=CCN(CCCNC(=O)N3CCCC3=O)CC2)cc1 [I a-6] yielded a Ki (PCP receptor) of 49 µM, a Ki (DA2 receptor) of 2200 nM and a Ki (5HT2 receptor) of 2500 nM. It also gave a Ki (σ receptor) of 2.7 nM.
